ChEMBL document CHEMBL1144578, “Chemotherapy of leishmaniasis Part VI: synthesis and bioevaluation of some novel terpenyl S,N- and N,N-acetals” (Eur J Med Chem, 2007)
Active and inactive are the calls of the source. The rule behind the calls is not given here.

How the values were obtained:
Leishmania donovani [1] = test: Inhibition of Leishmania donovani HOM/IN/80/DD8 in hamster at 50 mg/kg, ip after 7 days; assay type: functional; conditions: for inhibition in vivo at 50 mg/kg: HOM/IN/80/DD8, ip, 168 h, route intraperitoneal
Leishmania donovani [2] = test: Inhibition of Leishmania donovani HOM/IN/80/DD8 in hamster at 50 mg/kg, po after 7 days; assay type: functional; conditions: HOM/IN/80/DD8, 168 h
Leishmania donovani [3] = test: Inhibition of Leishmania donovani HOM/IN/80/DD8 in hamster at 50 mg/kg, po after 28 days; assay type: functional; conditions: HOM/IN/80/DD8, 672 h
Leishmania donovani [4] = test: Inhibition of Leishmania donovani HOM/IN/80/DD8 in hamster at 50 mg/kg, ip after 28 days; assay type: functional; conditions: HOM/IN/80/DD8, ip, 672 h, route intraperitoneal
Hamster = test: Toxicity in hamster at 50 mg/kg; assay type: organism-based; parameters: dose 50 mg/kg; conditions: cricetinae, in vivo
Leishmania donovani [5] = test: Inhibition of Leishmania donovani HOM/IN/80/DD8 in hamster at 12.5 mg/kg, po after 28 days; assay type: functional; conditions: HOM/IN/80/DD8, 672 h
Leishmania donovani [6] = test: Inhibition of Leishmania donovani HOM/IN/80/DD8 in hamster at 12.5 mg/kg, po after 7 days; assay type: functional; conditions: HOM/IN/80/DD8, 168 h

Compound `CS/C(=C/C(=O)/C=C/C1=C(C)CCCC1(C)C)Nc1ccc(F)cc1` has an inhibition in vivo at 50 mg/kg (Leishmania donovani [1]) of 31%.

Work on `CC1=C(/C=C/C(=O)C=C2NCCN2)C(C)(C)CCC1` yielded an inhibition in vivo at 50 mg/kg (Leishmania donovani [2]) of 40%, an inhibition in vivo at 50 mg/kg (Leishmania donovani [1]) of 30% and an inhibition in vivo at 50 mg/kg (Leishmania donovani [3]) of 71%. It also gave an inhibition in vivo at 50 mg/kg (Leishmania donovani [4]) of 65%.

`CS/C(=C/C(=O)/C=C/C1=C(C)CCCC1(C)C)NC1CCCCC1` showed an inhibition in vivo at 50 mg/kg (Leishmania donovani [1]) of 46%.

For `CC1=C(/C=C/C(=O)C=C(N2CCOCC2)N2CCOCC2)C(C)(C)CCC1`, the Activity (Leishmania donovani [1]) was “inactive”.

In the case of `CS/C(=C/C(=O)/C=C/C1=C(C)CCCC1(C)C)Nc1ccc(Cl)cc1`, the inhibition in vivo at 50 mg/kg (Leishmania donovani [1]) is reported as 18%.

For `COc1ccc(N/C(=C\C(=O)/C=C/C2=C(C)CCCC2(C)C)SC)cc1`, the inhibition in vivo at 50 mg/kg (Leishmania donovani [1]) was 52%.

In the case of `CC1=C(/C=C/C(=O)C=C(N2CCNCC2)N2CCNCC2)C(C)(C)CCC1`, the Activity (Hamster) is reported as “Toxic”.

In the case of `CS/C(=C/C(=O)/C=C/C1=C(C)CCCC1(C)C)Nc1ccccc1`, the Activity (Leishmania donovani [1]) is reported as “inactive”.

With `CCN(/C(=C\C(=O)/C=C/C1=C(C)CCCC1(C)C)SC)c1ccccc1` the Activity (Leishmania donovani [1]) was “inactive”.

For `CCCCCCCCCCCCCCCCOP(=O)([O-])OCC[N+](C)(C)C` [MILTEFOSINE], the inhibition in vivo at 12.5 mg/kg (Leishmania donovani [5]) was 69% and the inhibition in vivo at 12.5 mg/kg (Leishmania donovani [6]) was 94%.

`CS/C(=C/C(=O)/C=C/C1=C(C)CCCC1(C)C)Nc1cccc(F)c1` showed an inhibition in vivo at 50 mg/kg (Leishmania donovani [1]) of 53%.
